{"source": "patent US8394376B2", "about": "“Therapeutic agents for alzheimer's disease and cancer” (The University of Tokyo, priority 2006, dated 2013)", "key": {"A549 cells": {"test_system": "A549 cells", "test": "Cell viability by the MTT method", "assay_type": "cell-based, human", "conditions": "final concentration 100 μM, 72 hours, vs untreated, FIG. 12", "protocol": "HeLa cells or A549 cells (5×10^3 cells) were inoculated onto a 96-well multiplate and treated with DAPT (final concentration: 100 μM) for 72 hours. After the 72-hour treatment, MTT diluted with PBS was added to the plate so that the final MTT concentration was 500 μg/mL, followed by culturing at 37° C. for three to four hours. Thereafter, stop solution (10% SDS, 0.01 M HCl) was added to the plate for termination of reaction, and the plate was allowed to stand still at 37° C. overnight, followed by dissolution of produced formazan. The formazan solution was uniformly mixed through pipetting, and absorbance was measured at 550 nm, to thereby calculate cell viability. […] Subsequently, in order to confirm that this reduction in cell viability was attributed to inhibition of γ-secretase activity, endogenous nicastrin of A549 cells was knocked down through treatment with nicastrin-corresponding short interference RNA (siRNA), and change in cell viability was determined. […]\nSubsequently, the effect of the above-prepared antibodies on survival of A549 cells was examined. Each of the antibodies was added to A549 cells so that the final antibody concentration was 10 μg/mL, and, 96 hours after addition of the antibody, cell viability was determined through the MTT method."}, "HeLa cells": {"test_system": "HeLa cells", "test": "Cell viability by the MTT method", "assay_type": "cell-based, human", "conditions": "final concentration 100 μM, 72 hours, vs untreated, FIG. 12", "protocol": "HeLa cells or A549 cells (5×10^3 cells) were inoculated onto a 96-well multiplate and treated with DAPT (final concentration: 100 μM) for 72 hours. After the 72-hour treatment, MTT diluted with PBS was added to the plate so that the final MTT concentration was 500 μg/mL, followed by culturing at 37° C. for three to four hours. Thereafter, stop solution (10% SDS, 0.01 M HCl) was added to the plate for termination of reaction, and the plate was allowed to stand still at 37° C. overnight, followed by dissolution of produced formazan. The formazan solution was uniformly mixed through pipetting, and absorbance was measured at 550 nm, to thereby calculate cell viability. […] Subsequently, in order to confirm that this reduction in cell viability was attributed to inhibition of γ-secretase activity, endogenous nicastrin of A549 cells was knocked down through treatment with nicastrin-corresponding short interference RNA (siRNA), and change in cell viability was determined. As a result, in the case of treatment with nicastrin siRNA, cell viability was reduced by about 20%, as compared with the case of treatment with siRNA having a random sequence (scramble) (FIG. 13)."}, "HEK/SC100G cells": {"test_system": "HEK/SC100G cells", "test": "GAL4-UAS luciferase reporter assay in living cells", "assay_type": "cell-based", "conditions": "final concentration 10 μM", "source_text": "A preproenkephalin-derived signal peptide was inserted into C99, and GAL4 (i.e., a yeast-derived transcription factor) was inserted immediately downstream of the transmembrance domain of C99, to thereby prepare a construct (SC100G). The construct (SC100G) was subcloned into pcDNA3.1/Hygro vector (Invitroger).\nA UAS sequence was inserted upstream of luciferase in pGL3(R2.2) vector (Promega), to thereby prepare a construct (UAS-luc), and the construct was employed as a reporter construct. eGFP was subcloned into pcDNA3 (Invitrogen), and the thus-prepared pcDNA3-eGFP was employed as a control vector for monitoring the number of cells. […]\n(§1) HEK/SC100G cells or HEK/NΔEGV cells were inoculated into a 48-well multiplate (2.5×10^4 cells). […] After culturing for 12 hours, cells and a culture supernatant were recovered, and the amount of Aβ was determined through a reporter assay or ELISA.\n(§2) The recovered cells were lysed in a lysis buffer (Promega), and the resultant lysate was subjected to the reporter assay. […] The amount of luciferase luminescence was normalized by the concentration of protein (in the case of HEK/SC100G cells), or by the amount of eGFP luminescence (in the case of HEK/NΔEGV cells), to thereby yield relative light unit (RLU). […]"}, "HEK/NΔEGV cells": {"test_system": "HEK/NΔEGV cells", "test": "GAL4-UAS luciferase reporter assay in living cells", "assay_type": "cell-based", "conditions": "final concentration 10 μM", "source_text": "GAL4/VP16 was bound to NΔE (including N99), in which deletion occurs in the extracellular domain of Notch receptor and which serves as a direct substrate for γ-secretase in a ligand-independent manner, to thereby prepare a construct (NΔEGV, Taniguchi Y., Karlstrom K., Lundkvist J., Mizutani T., Otaka A., Vestling M., Bernstein A., Donoviel D., Lendahl U., Honjo T.: Notch receptor cleavage depends on but is not directly executed by presenilins. Proc. Natl. Acad. Sci. U.S.A 2002, 99: 4014). The construct (NΔEGV) was subcloned into pcDNA3.1 vector (pcDNA3.1-NΔEGV). […]\nas §1, §2"}}, "data": [{"smiles": "C[C@H](NC(=O)Cc1cc(F)cc(F)c1)C(=O)N[C@H](C(=O)OC(C)(C)C)c1ccccc1", "note": "[DAPT]", "values": [{"measurement": "cell viability", "setting": "A549 cells", "value": "significantly lower"}, {"measurement": "cell viability", "setting": "HeLa cells", "value": "no significant difference"}, {"measurement": "reporter activity", "setting": "HEK/SC100G cells", "value": "inhibit reporter activity"}, {"measurement": "reporter activity", "setting": "HEK/NΔEGV cells", "value": "inhibit reporter activity"}]}]}
